This is an account of results in ChEMBL document CHEMBL1201862, “PubChem BioAssay data set” (2004).

In assay [1] the target is T1, Dual specificity protein phosphatase 6 (Rattus norvegicus, UniProt Q64346).
T1 sequence (Q64346 whole entry): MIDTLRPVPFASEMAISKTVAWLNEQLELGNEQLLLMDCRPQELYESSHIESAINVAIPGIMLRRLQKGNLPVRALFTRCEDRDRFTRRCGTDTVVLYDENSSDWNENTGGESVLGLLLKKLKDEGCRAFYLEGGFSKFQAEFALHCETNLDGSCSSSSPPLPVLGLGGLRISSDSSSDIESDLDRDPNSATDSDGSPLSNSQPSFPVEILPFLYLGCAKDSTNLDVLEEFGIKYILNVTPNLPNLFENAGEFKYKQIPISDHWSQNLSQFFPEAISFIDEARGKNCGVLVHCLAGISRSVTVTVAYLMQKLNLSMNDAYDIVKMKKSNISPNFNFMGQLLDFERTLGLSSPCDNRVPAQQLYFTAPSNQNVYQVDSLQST
Type of assay: functional.

The target of assay [2] is T1, Dual specificity protein phosphatase 6.
For assay [3], the target named is Glyceraldehyde-3-phosphate dehydrogenase (Homo sapiens, UniProt P04406).
Glyceraldehyde-3-phosphate dehydrogenase, sequence (P04406 whole entry): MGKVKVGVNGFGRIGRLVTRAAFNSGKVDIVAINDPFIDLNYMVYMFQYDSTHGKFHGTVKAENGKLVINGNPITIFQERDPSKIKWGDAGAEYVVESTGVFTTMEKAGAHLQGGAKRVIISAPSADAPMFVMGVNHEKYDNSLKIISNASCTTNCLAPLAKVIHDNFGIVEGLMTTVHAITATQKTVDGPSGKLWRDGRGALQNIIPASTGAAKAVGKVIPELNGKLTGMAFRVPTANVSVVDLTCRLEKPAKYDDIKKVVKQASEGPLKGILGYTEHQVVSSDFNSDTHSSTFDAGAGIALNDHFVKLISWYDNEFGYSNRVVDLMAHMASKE
Assay [4] deals with T2, Tyrosine-protein phosphatase non-receptor type 7 (Homo sapiens, UniProt P35236).
T2 sequence (P35236 whole entry): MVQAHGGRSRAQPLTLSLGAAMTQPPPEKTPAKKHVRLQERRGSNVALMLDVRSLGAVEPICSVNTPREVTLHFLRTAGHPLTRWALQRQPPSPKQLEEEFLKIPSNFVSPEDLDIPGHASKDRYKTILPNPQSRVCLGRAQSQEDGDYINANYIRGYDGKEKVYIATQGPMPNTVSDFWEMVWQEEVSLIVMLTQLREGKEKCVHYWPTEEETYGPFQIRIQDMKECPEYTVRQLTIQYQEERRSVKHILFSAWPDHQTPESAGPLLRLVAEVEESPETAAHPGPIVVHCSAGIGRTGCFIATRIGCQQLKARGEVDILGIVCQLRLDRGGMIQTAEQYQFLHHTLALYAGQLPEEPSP
Format: functional.

The target of assay [5] is G-protein coupled receptor 55 (Homo sapiens, UniProt Q9Y2T6). In words: GPR55 agonists via beta-arrestin recruitment, primary screen, imaging, U2OS cells, beta-arrestin-GFP redistribution (AID 1961). Format: functional.
G-protein coupled receptor 55, sequence (Q9Y2T6 whole entry, the tested form may be a part): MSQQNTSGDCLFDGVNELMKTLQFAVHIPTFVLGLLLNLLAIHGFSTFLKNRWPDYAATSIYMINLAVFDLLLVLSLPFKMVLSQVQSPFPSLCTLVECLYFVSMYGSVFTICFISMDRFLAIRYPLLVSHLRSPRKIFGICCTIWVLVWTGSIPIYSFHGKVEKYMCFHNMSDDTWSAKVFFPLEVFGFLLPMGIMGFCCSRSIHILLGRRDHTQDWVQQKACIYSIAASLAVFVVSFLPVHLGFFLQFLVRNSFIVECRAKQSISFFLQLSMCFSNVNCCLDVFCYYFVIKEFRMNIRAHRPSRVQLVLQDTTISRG
The target of assay [6] is T3, NACHT, LRR and PYD domains-containing protein 1 (Homo sapiens, UniProt Q9C000).
T3 sequence (Q9C000 whole entry): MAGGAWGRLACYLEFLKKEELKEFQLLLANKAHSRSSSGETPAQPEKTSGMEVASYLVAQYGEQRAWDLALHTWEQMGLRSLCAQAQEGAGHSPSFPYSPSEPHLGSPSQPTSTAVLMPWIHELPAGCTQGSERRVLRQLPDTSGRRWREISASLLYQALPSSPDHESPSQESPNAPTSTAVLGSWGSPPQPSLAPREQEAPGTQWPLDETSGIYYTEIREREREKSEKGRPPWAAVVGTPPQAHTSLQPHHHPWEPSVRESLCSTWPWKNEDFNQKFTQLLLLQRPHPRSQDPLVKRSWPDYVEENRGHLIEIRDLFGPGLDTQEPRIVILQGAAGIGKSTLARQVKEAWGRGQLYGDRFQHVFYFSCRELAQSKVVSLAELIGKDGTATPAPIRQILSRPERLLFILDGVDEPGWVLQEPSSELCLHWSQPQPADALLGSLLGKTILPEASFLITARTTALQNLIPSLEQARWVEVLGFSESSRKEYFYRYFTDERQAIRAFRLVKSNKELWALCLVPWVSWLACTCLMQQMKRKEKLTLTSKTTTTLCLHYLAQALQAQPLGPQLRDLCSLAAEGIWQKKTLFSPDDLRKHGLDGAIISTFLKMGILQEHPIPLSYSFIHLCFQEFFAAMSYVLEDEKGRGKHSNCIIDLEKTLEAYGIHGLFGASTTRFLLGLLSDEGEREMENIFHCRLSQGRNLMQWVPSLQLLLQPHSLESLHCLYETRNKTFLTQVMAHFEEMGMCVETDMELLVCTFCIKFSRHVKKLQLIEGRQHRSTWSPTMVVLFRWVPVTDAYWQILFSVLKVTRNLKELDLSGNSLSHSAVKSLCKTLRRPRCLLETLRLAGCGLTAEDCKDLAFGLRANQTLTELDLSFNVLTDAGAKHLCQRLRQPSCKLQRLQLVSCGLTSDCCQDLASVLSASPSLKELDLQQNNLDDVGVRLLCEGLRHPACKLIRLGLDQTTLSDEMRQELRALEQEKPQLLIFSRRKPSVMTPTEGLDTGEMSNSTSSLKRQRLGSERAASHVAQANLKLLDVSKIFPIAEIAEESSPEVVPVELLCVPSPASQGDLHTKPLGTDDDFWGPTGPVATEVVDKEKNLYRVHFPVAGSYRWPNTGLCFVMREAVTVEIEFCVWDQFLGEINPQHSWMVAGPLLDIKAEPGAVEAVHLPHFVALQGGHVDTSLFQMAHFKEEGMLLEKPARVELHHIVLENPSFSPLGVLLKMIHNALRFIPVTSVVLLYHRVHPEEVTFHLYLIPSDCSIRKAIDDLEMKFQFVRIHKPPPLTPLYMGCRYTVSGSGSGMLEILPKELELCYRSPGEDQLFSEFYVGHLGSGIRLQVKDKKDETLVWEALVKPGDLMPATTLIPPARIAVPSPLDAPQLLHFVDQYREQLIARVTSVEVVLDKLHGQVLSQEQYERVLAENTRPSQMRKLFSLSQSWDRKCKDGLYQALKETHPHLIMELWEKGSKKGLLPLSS
In words: NALP1 inhibitors in yeast, dose response, luminescent (AID 488860). Type of assay: functional.

Another assay deals with Saccharomyces cerevisiae. In words: NALP1 inhibitor project selectivity study, Caspase-1/ASC signal blockade IC50 in S. cerevisiae (AID 488863). Type of assay: functional, organism-based.
Assay [7] addresses T4, Replicative DNA helicase DnaB (Mycobacterium tuberculosis, UniProt P9WMR3).
T4 sequence (P9WMR3 whole entry): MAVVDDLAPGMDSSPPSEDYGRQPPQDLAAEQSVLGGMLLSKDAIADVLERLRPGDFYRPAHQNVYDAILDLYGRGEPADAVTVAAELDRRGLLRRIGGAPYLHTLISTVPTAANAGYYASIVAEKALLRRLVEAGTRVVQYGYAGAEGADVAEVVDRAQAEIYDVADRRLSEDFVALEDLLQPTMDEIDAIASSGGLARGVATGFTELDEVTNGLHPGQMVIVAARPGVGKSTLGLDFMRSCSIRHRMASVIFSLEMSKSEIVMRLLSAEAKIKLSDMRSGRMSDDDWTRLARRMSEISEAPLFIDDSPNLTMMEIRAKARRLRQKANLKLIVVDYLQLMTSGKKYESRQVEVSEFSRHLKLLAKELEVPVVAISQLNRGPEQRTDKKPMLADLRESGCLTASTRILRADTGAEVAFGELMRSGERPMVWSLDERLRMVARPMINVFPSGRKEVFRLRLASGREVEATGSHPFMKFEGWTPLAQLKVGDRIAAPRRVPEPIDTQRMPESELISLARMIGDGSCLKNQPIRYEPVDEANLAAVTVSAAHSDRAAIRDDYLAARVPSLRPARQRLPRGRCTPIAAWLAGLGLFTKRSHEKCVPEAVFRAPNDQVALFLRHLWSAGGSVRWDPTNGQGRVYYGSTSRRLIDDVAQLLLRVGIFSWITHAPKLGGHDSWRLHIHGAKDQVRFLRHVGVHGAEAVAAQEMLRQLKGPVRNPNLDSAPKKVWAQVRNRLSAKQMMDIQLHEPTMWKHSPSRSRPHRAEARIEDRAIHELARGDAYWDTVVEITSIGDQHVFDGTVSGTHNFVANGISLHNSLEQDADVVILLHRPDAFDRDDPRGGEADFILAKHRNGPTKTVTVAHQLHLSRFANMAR
In words: DnaB intein splicing inhibitors, dose response, biochemical, cell-free fluorescence (AID 449749). Format: functional.

The target of a further assay is T5, Protein RecA (Mycobacterium tuberculosis, UniProt P9WHJ3).
T5 sequence (P9WHJ3 whole entry): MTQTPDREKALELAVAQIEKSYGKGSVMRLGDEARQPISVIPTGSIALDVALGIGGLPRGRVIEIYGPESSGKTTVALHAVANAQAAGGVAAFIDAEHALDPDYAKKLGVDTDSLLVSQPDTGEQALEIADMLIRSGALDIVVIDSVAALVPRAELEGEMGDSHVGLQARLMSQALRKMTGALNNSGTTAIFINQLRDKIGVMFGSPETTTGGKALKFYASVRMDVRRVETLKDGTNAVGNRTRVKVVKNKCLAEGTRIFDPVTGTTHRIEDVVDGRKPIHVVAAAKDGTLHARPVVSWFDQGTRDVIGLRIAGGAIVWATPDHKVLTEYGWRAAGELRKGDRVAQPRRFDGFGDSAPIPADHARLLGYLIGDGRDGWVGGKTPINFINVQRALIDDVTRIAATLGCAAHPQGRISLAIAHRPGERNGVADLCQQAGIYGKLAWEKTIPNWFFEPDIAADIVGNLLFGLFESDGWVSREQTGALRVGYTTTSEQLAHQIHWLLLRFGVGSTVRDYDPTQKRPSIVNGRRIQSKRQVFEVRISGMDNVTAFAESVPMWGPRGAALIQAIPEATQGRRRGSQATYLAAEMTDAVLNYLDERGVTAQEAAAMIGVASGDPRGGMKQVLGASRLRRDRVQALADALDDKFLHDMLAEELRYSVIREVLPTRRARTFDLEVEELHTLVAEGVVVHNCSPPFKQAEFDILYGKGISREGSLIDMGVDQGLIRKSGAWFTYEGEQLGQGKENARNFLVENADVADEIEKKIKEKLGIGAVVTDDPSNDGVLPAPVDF
In words: Fluorescence Cell-Free Homogeneous Dose Retest to Identify Inhibitors of RecA-Intein Splicing Activity. [Related pubchem assays (depositor defined):AID2097, AID2223, AID489010, AID492950]. Type of assay: functional.

A further assay relates to Streptococcus. Description: Group A Streptococcus viability loss, dose response, counter-screen for streptokinase expression inhibitor project, luminescence, BacTiterGlo (AID 1915).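 Also: potency for reduction of bacterial viability or growth.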 Type of assay: functional, organism-based.
Another assay has as its target T6, Streptokinase A (Streptococcus pyogenes serotype M1, UniProt P10520).
T6 sequence (P10520 whole entry): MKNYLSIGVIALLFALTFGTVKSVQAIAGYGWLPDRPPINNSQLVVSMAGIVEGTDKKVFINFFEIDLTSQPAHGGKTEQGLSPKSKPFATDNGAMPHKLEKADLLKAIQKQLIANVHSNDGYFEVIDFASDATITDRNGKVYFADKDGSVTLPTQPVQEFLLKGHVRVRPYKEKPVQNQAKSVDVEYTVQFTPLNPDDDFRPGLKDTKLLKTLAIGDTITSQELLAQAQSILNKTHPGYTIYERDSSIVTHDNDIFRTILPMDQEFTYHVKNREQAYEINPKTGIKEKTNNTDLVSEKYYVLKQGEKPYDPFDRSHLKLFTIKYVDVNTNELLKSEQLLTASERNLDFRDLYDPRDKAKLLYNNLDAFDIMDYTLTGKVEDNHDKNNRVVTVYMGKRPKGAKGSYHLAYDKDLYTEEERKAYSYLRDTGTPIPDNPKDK
Description: S. pyogenes streptokinase expression inhibitors, potency, dose response, plasminogen activation absorbance, OD405 (AID 1914).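 Also: secreted streptokinase activity via plasminogen activation per viability signal from cell pellet.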 Format: functional, Streptococcus pyogenes M1 GAS.

In assay [8] the test system is Streptococcus sp. 'group A'. In words: growth inhibition of control SK(-) GAS strain, dose response, counter-screen for streptokinase expression inhibitor project, luminescence, kanamycin, BacTiterGlo, confirmation (AID 1900). Type of assay: functional, organism-based.
The target of the next assay is T7, X-box-binding protein 1 (Homo sapiens, UniProt P17861).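 Also: confirmatory dose-response counter-screen serving a CHOP assay.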
T7 sequence (P17861 whole entry): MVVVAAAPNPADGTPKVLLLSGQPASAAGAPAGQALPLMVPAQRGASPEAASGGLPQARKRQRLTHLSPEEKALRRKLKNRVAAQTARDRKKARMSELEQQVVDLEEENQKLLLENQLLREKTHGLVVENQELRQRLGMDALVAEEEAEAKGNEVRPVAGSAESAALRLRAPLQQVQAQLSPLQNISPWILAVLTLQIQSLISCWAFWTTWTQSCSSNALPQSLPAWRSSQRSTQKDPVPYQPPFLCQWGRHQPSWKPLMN
Type of assay: functional, Cricetulus griseus.

Active and inactive are the calls of the source.

With `Cc1cc(NC(=O)/C=C/c2cccs2)no1`, the IC50 in assay [1] is > 100 µM (inactive); in assay [2], > 100 µM (inactive); in assay [3], 62.6 µM (active); in assay [4] it was > 100 µM (not active).
On to `O=C(c1ccc2c(c1)N(Cc1ccccc1F)C(=O)c1ccccc1S2(=O)=O)N1CCCC1`, for which the EC50 in assay [5] was > 32 µM (inactive).
With `CCOc1ccccc1N1CCN(C(=O)CCCc2nc3ccccc3s2)CC1`, the figures for the IC50 (in assay [6]; with Saccharomyces cerevisiae) were 36.3 µM (active) and > 100 µM (inactive), respectively.
In the case of `COc1ccc(C=C(c2nc3ccccc3s2)c2nc3ccccc3s2)cc1O`, in [7], the AC50 is > 380 µM (inactive). Also, the EC50 on Protein RecA is 7.08 µM (active); in assay [5], 3.05 µM (active).
For the molecule `C=CCn1c(COc2ccccc2)nnc1SC(C)C(=O)N/N=C/c1cc(Cl)ccc1O` (centres undefined), the half-maximal effective concentration (EC50) with Streptococcus is 8.01 µM (active); on Streptokinase A it was > 150 µM (not active); in assay [8], 2.77 µM (active). Besides, the “Absolute IC50 (XBP1)” value at X-box-binding protein 1 worked out at 10 µM.
